Assay [1] concerns the target biotinylated human Gal-3 (hGal-3) (Homo sapiens, UniProt P17931). Description: Competitive binding assay: biotinylated hGal-3 binding to microplate-adsorbed asialofetuin (ASF), spectrophotometric. Put shortly:
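Serially diluted compounds competed with asialofetuin on the plate for biotinylated human Gal-3 during a 3 h incubation at 4° C. Streptavidin-peroxidase with ABTS gave the spectrophotometric signal. IC50 values were averaged over repeat runs.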

Another assay deals with human Gal-1 (hGal-1) (Homo sapiens, UniProt P09382). The experiment in a line: Competitive binding assay: biotinylated hGal-1 binding to microplate-adsorbed asialofetuin (ASF), spectrophotometric. The following applies: hGal-1 binding to asialofetuin; Table 15; R and S epimers of selected Examples also listed; read-out: IC50 (Galectin-1 inhibition). Put shortly: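 Spectrophotometric competition readout with ABTS after streptavidin-peroxidase (80 ng/mL, 1 h, 4 °C) detection of bound biotinylated hGal-1.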

The mark [2] stands for this setting: Table 13, hGal-3, read-out: IC50 (Gal-3 inhibition).
[3] abbreviates: Table 10, hGal-3, read-out: IC50 (Gal-3 inhibition).
[4] abbreviates: Gal-3 inhibition, Table 4, read-out: IC50.
The mark [5] stands for this setting: Table 12, hGal-3, read-out: IC50 (Gal-3 inhibition).
Setting [6] is: Gal-3 inhibition, Table 5, read-out: IC50.

Where two headings read alike, the source gives them in different places. Some results are limits rather than exact numbers.

Sequence of biotinylated human Gal-3 (hGal-3) (P17931 whole entry): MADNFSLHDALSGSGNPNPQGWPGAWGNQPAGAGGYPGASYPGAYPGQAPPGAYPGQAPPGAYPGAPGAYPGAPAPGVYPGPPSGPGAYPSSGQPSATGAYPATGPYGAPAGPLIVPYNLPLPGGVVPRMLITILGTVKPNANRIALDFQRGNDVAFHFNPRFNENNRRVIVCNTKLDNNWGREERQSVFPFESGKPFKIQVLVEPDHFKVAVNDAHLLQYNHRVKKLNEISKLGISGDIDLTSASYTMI
Sequence of human Gal-1 (hGal-1) (P09382 whole entry): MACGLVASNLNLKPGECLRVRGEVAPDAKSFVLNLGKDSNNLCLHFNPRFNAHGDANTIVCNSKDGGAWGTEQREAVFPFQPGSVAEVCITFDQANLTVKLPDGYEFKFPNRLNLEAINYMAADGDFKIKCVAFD

Consider `CO[C@@H]1[C@@H](n2cc(-c3cc(F)c(F)c(F)c3)nn2)[C@@H](O)[C@@H](CO)O[C@H]1SC(C(=O)N1CCC(F)(F)CC1)C1(O)CCC2(CC1)COC2` (stereo partly drawn) [Example 2.70.226.I., 1-(4,4-Difluoropiperidin-1-yl)-2-(((2S,3R,4S,5R,6R)-5-hydroxy-6-(hydroxymethyl)-3-methoxy-4-(4-(3,4,5-trifluorophenyl)-1H-1,2,3-triazol-1-yl)tetrahydro-2H-pyran-2-yl)thio)-2-(7-hydroxy-2-oxaspiro[3.5]nonan-7-yl)ethan-1-one], for which the IC50 was determined as 110 nM in assay [1] (setting [2]) and 200 nM on human Gal-1 (hGal-1).
Consider `CCN(CC1CC(F)(F)C1)C(=O)C(S[C@@H]1O[C@H](CO)[C@H](O)[C@H](n2cc(-c3cc(F)c(F)c(F)c3)nn2)[C@H]1OC)C1(O)CCC(F)(F)CC1` (stereo partly shown) [Example 2.44.256.I.], for which the half-inhibitory concentration (IC50) in assay [1] (setting [3]) stood at 50 nM; at human Gal-1 (hGal-1) it was 130 nM.
Turning to `CCO[C@@H]1[C@@H](n2cc(-c3cc(F)c(F)c(F)c3)nn2)[C@@H](O)[C@@H](CO)O[C@H]1SC(C(=O)N1CCC(F)(F)CC1)C1(O)CCC(F)(F)CC1` (stereo partly drawn) [Example 2.44.226.II., 2-(4,4-Difluoro-1-hydroxycyclohexyl)-1-(4,4-difluoropiperidin-1-yl)-2-(((2S,3R,4S,5R,6R)-3-ethoxy-5-hydroxy-6-(hydroxymethyl)-4-(4-(3,4,5-trifluorophenyl)-1H-1,2,3-triazol-1-yl)tetrahydro-2H-pyran-2-yl)thio)ethan-1-one], the IC50 in assay [1] (Gal-3 inhibition, Table 14, read-out: IC50) worked out at 100 nM; on human Gal-1 (hGal-1), 100 nM.
With `CC1CCN1C(=O)C(S[C@@H]1O[C@H](CO)[C@H](O)[C@H](n2cc(-c3cc(F)c(F)c(F)c3)nn2)[C@H]1O)C1(O)CCOCC1` (stereo partly drawn) [Example 2.41.204., 2-(((2S,3R,4S,5R,6R)-3,5-Dihydroxy-6-(hydroxymethyl)-4-(4-(3,4,5-trifluorophenyl)-1H-1,2,3-triazol-1-yl)tetrahydro-2H-pyran-2-yl)thio)-2-(4-hydroxytetrahydro-2H-pyran-4-yl)-1-(2-methylazetidin-1-yl)ethan-1-one], the IC50 amounted to 210 nM in assay [1] (setting [4]) and 950 nM at human Gal-1 (hGal-1).
The matching figures for `CN(C)C(=O)[C@H](S[C@@H]1O[C@H](CO)[C@H](O)[C@H](n2cc(-c3cc(F)c(F)c(F)c3)nn2)[C@H]1O)C1(O)CCOCC1` [Example 2.41.201R., (R)-2-(((2S,3R,4S,5R,6R)-3,5-Dihydroxy-6-(hydroxymethyl)-4-(4-(3,4,5-trifluorophenyl)-1H-1,2,3-triazol-1-yl)tetrahydro-2H-pyran-2-yl)thio)-2-(4-hydroxytetrahydro-2H-pyran-4-yl)-N,N-dimethylacetamide]: 4100 nM and over 100000 nM.
With `CN(CC1CC1)C(=O)C(S[C@@H]1O[C@H](CO)[C@H](O)[C@H](n2cc(-c3cc(F)c(F)c(F)c3)nn2)[C@H]1O)C(C)(C)O` (stereo partly drawn) [Example 2.31.218., N-(Cyclopropylmethyl)-2-(((2S,3R,4S,5R,6R)-3,5-dihydroxy-6-(hydroxymethyl)-4-(4-(3,4,5-trifluorophenyl)-1H-1,2,3-triazol-1-yl)tetrahydro-2H-pyran-2-yl)thio)-3-hydroxy-N,3-dimethylbutanamide], the half-maximal inhibitory concentration (IC50) in assay [1] (Table 6, hGal-3, read-out: IC50 (Gal-3 inhibition)) amounted to 30 nM; on human Gal-1 (hGal-1) it was 220 nM.
In the case of `CCN(C(=O)C(S[C@@H]1O[C@H](CO)[C@H](O)[C@H](n2cc(-c3cc(F)c(F)c(F)c3)nn2)[C@H]1O)C1(O)CCOCC1)C1CCC1` (stereo partly shown) [Example 2.41.237.], the IC50 came out at 30 nM in assay [1] (setting [3]) and 20 nM on human Gal-1 (hGal-1).
Regarding `CO[C@@H]1[C@@H](n2cc(-c3cc(F)c(F)c(F)c3)nn2)[C@@H](O)[C@@H](CO)O[C@H]1SC(C(=O)N(C)C12CC(C1)C2)C1(O)CCC(F)(F)CC1` (stereo partly drawn) [Example 2.44.247.I., N-(Bicyclo[1.1.1]pentan-1-yl)-2-(4,4-difluoro-1-hydroxycyclohexyl)-2-(((2S,3R,4S,5R,6R)-5-hydroxy-6-(hydroxymethyl)-3-methoxy-4-(4-(3,4,5-trifluorophenyl)-1H-1,2,3-triazol-1-yl)tetrahydro-2H-pyran-2-yl)thio)-N-methylacetamide], the values for the 50% inhibitory concentration (IC50) (in assay [1] (setting [5]); on human Gal-1 (hGal-1)) were 50 nM and 30 nM, respectively.
Regarding `CN(C(=O)C(S[C@@H]1O[C@H](CO)[C@H](O)[C@H](n2cc(-c3cc(F)c(F)c(F)c3)nn2)[C@H]1O)C1(O)CCCC1)C1CCC1` (stereo partly drawn) [Example 2.38.220., N-Cyclobutyl-2-(((2S,3R,4S,5R,6R)-3,5-dihydroxy-6-(hydroxymethyl)-4-(4-(3,4,5-trifluorophenyl)-1H-1,2,3-triazol-1-yl)tetrahydro-2H-pyran-2-yl)thio)-2-(1-hydroxycyclopentyl)-N-methylacetamide], the IC50 in assay [1] (setting [6]) was 30 nM; on human Gal-1 (hGal-1), 20 nM.
Regarding `CO[C@@H]1[C@@H](n2cc(-c3cc(F)c(F)c(F)c3)nn2)[C@@H](O)[C@@H](CO)O[C@H]1S[C@H](C(=O)N1CCC(F)(F)CC1)C1(O)CCC2(CCOCC2)CC1` [Example 2.72.226S.I., (S)-1-(4,4-Difluoropiperidin-1-yl)-2-(((2S,3R,4S,5R,6R)-5-hydroxy-6-(hydroxymethyl)-3-methoxy-4-(4-(3,4,5-trifluorophenyl)-1H-1,2,3-triazol-1-yl)tetrahydro-2H-pyran-2-yl)thio)-2-(9-hydroxy-3-oxaspiro[5.5]undecan-9-yl)ethan-1-one], the IC50 in assay [1] (setting [2]) was found to be 40 nM; at human Gal-1 (hGal-1) it was 100 nM.
`CO[C@@H]1[C@@H](n2cc(-c3cc(F)c(F)c(F)c3)nn2)[C@@H](O)[C@@H](CO)O[C@H]1SC(C(=O)N(C)CC(C)(C)F)C1(O)CCC(F)(F)CC1` (stereo partly drawn) [Example 2.44.222.1., 2-(4,4-Difluoro-1-hydroxycyclohexyl)-N-(2-fluoro-2-methylpropyl)-2-(((2S,3R,4S,5R,6R)-5-hydroxy-6-(hydroxymethyl)-3-methoxy-4-(4-(3,4,5-trifluorophenyl)-1H-1,2,3-triazol-1-yl)tetrahydro-2H-pyran-2-yl)thio)-N-methylacetamide]: the IC50 was 50 nM in assay [1] (setting [5]) and 220 nM on human Gal-1 (hGal-1).
`CO[C@@H]1[C@@H](n2cc(-c3cc(F)c(F)c(F)c3)nn2)[C@@H](O)[C@@H](CO)O[C@H]1S[C@@H](C(=O)N1CCC(F)(F)CC1)C1(O)CCC2(CCCC2)CC1` [Example 2.71.226R.I., (R)-1-(4,4-Difluoropiperidin-1-yl)-2-(((2S,3R,4S,5R,6R)-5-hydroxy-6-(hydroxymethyl)-3-methoxy-4-(4-(3,4,5-trifluorophenyl)-1H-1,2,3-triazol-1-yl)tetrahydro-2H-pyran-2-yl)thio)-2-(8-hydroxyspiro[4.5]decan-8-yl)ethan-1-one]: the IC50 was 670 nM in assay [1] (setting [2]) and 1100 nM at human Gal-1 (hGal-1).
Regarding `CO[C@@H]1[C@@H](n2cc(-c3cc(F)c(F)c(F)c3)nn2)[C@@H](O)[C@@H](CO)O[C@H]1S[C@@H](C(=O)N(C)CC(C)(C)F)C1(O)CCC(F)(F)CC1` [Example 2.44.222R.I., (R)-2-(4,4-Difluoro-1-hydroxycyclohexyl)-N-(2-fluoro-2-methylpropyl)-2-(((2S,3R,4S,5R,6R)-5-hydroxy-6-(hydroxymethyl)-3-methoxy-4-(4-(3,4,5-trifluorophenyl)-1H-1,2,3-triazol-1-yl)tetrahydro-2H-pyran-2-yl)thio)-N-methylacetamide], the results for the IC50 (in assay [1] (setting [5]); at human Gal-1 (hGal-1)) were 7900 nM and 8780 nM, respectively.
For the compound `CN(C)C(=O)C(S[C@@H]1O[C@H](CO)[C@H](O)[C@H](n2cc(-c3cc(F)c(F)c(F)c3)nn2)[C@H]1O)C1(O)CCC(F)(F)CC1` (single isomer, unassigned) [Example 2.44.201S.], the IC50 in assay [1] (setting [6]) stood at 40 nM; at human Gal-1 (hGal-1), 180 nM.

As a reminder, the IC50 is the concentration needed to halve the response being measured.
